Molecules are shown by their SMILES.

What all share (assay type): in vivo, C57BL/6 mice
Test [1] has as its system IMQ-induced psoriasis-like mouse model. Nature of the test: Skin lesion score (erythema+scaling+thickening) in IMQ-induced psoriasis-like mouse model. The conditions noted are these: for severity of psoriasis-like skin lesions (cumulative score erythema+scaling+thickening): oral, 7 days. The method, then:
More specifically, hair on the backs of C57BL/6 mice was shaved off using an electric razor and then treated with a depilatory (Niclean, Ildong, Korea). For all other groups except a normal group, 62.5 mg of IMQ cream was applied daily to the shaved back area for 14 days.
On the other hand, the normal group as a negative control group was treated only with a vehicle cream (petrolatum).
The degree of (1) erythema, (2) scaling and (3) thickening was scored as 0 (none), 1 (mild), 2 (moderate) and 3 (severe). A cumulative dermatitis score (erythema+scaling+thickening) indicates the severity of psoriasis in back skin (scale: 0-9).
The clinical skin scores were calculated by summing the scores obtained on the basis of symptoms of erythema, scaling and thickening.

The test system of another test is IL-17A. Briefly: Cytokine production assay (ELISA), IL-17A in blood serum and skin of IMQ-induced psoriasis-like mice. The conditions noted are these: blood serum samples and skin samples; glucosamine 300 mg/kg, cyclosporine A 10 and 20 mg/kg; co-administration vs each alone; alone vs control group (IMQ alone). As to the method: (§1) To measure cytokine levels in blood serum, mouse blood serum was collected 24 hours after the final administration and stored at −70° C. until analysis. To measure cytokine levels in the skin tissues, the back skin of mice was removed and stored at −80° C. Thereafter, the skin tissues were homogenized using a Bullet Blender™ Blue (Next Advance, Averill Park, N.Y.) at 4° C. to obtain supernatants, and the supernatants were stored at −30° C. IL-17A, IL-22, IL-23, and TNF-α concentrations in the blood serum and the skin tissues of mice were measured using the Mouse IL-17A Quantikine ELISA Kit (R&D Systems, Minneapolis, Minn., USA), IL-22, IL-23 and TNF-α ELISA kits (eBioscience, San Diego, Calif., USA). Meanwhile, ELISA was performed according to the manufacturer's instructions.
On the technique in general: An ELISA detects its analyte on a solid surface through an enzyme-linked reagent.

The next test relates to IL-22. Briefly: Cytokine production assay (ELISA), IL-22 in blood serum and skin of IMQ-induced psoriasis-like mice. The conditions noted are these: blood serum samples and skin samples; glucosamine 300 mg/kg, cyclosporine A 10 and 20 mg/kg; co-administration vs each alone; alone vs control group (IMQ alone). As to the method:
as §1

For another test, the system named is IL-23. Nature of the test: Cytokine production assay (ELISA), IL-23 in blood serum and skin of IMQ-induced psoriasis-like mice. The conditions noted are these: blood serum samples and skin samples; glucosamine 300 mg/kg, cyclosporine A 10 and 20 mg/kg; co-administration vs each alone; alone vs control group (IMQ alone). As to the method: as §1
The test system of another test is TNF-α. Briefly: Cytokine production assay (ELISA), TNF-α in blood serum and skin of IMQ-induced psoriasis-like mice. The conditions noted are these: blood serum samples and skin samples; glucosamine 300 mg/kg, cyclosporine A 10 and 20 mg/kg; co-administration vs each alone; alone vs control group (IMQ alone). As to the method: as §1
For a further test, the system named is CD4+ CD25+ Treg cells. Briefly: Flow cytometry of regulatory T (Treg) cells from spleens of IMQ-induced psoriasis-like mice. The conditions noted are these: spleen cells; glucosamine 300 mg/kg, cyclosporine A 20 mg/kg; co-administration vs each alone; alone vs control group (IMQ alone). The method, then: Single-cell suspensions prepared from spleens were stained with FITC-anti-CD4 (GK1.5) and PE-anti-CD25 (280406) (R&D Systems, Minneapolis, Minn., USA), and incubated in a PBS solution containing 2% FBS at 4° C. for 30 minutes under dark conditions. After incubation, the samples were washed twice and analyzed using CellQuest software (Becton Dickinson).

Take `N[C@@H]1C(O)O[C@H](CO)[C@H](O)[C@@H]1O` (stereo in doubt) [glucosamine]: the clinical skin scores entry in test [1] (glucosamine 300 mg/kg, cyclosporine A 10 and 20 mg/kg, oral once a day for a week, co-administration vs each alone, alone vs control group (IMQ alone)) is “no significant difference”. The “severity of psoriasis-like skin lesions (cumulative score erythema+scaling+thickening)” value is “reduced” in test [1] (high doses alone: glucosamine 400 mg/kg, cyclosporine A 40 mg/kg); “no significant effect” in test [1] (low doses alone: glucosamine 100, 200 and 300 mg/kg, cyclosporine A 10 and 20 mg/kg). Further, the IL-17A level result with IL-17A is recorded as “no significant difference”. In the test with IL-22, the IL-22 level result is listed as “no significant difference”. Further, the IL-23 level entry in the test with IL-23 is “no significant difference”. In the test on TNF-α, the “level of TNF-α” value is recorded as “no significant difference”. Also, the “number of CD4+ CD25+ Treg cells” value in the test with CD4+ CD25+ Treg cells was “no significant difference”.

These data come from patent US20170360882A1, “COMPOSITION FOR PREVENTING, IMPROVING OR TREATING PSORIASIS COMPRISING IMMUNOMODULATOR AND GLUCOSAMINE” (DONGGUK UNIVERSITY INDUSTRY-ACADEMY COOPERATION FOUNDATION, priority 2014, published 2017).
